From patent publication US20150126581A1, “MicroRNAs and Uses Thereof” (The University of Western Australia, priority 2012, published 2015)

Key:
Assay type in all cases: cell-based, human
DOHH 3′-UTR = test: Dual luciferase reporter gene assay in HeLa cells, DOHH 3′-UTR reporter; conditions: 1-2 nM pre-miRNA, 24 h after transfection, compared to miR-NC
Source text: Synthetic miRNA precursor molecules corresponding to human miR-331-3p (Pre-miR miRNA Precursor Product ID: PM10881), human miR-642-5p (Pre-miR miRNA Precursor Product ID: PM11477) and a negative control miRNA (miR-NC; Pre-miR miRNA Precursor Negative Control #1, Product ID: AM 17110) were obtained from Ambion.
The dual luciferase (firefly and Renilla) reporter miRNA target clone for the DOHH 3′-UTR (catalogue no. HmiT020194-MT01) and the negative control vector (catalogue no. CmiT000001-MT01), both based on the PETZ-MT01 vector containing a SV40 promoter upstream of the hLuc gene, and a CMV reporter upstream of the hRLuc gene, were sourced from Genecopoeia™ (Rockville, USA). […]
HeLa cells were seeded in 12-well plates and co-transfected using Lipofectamine 2000 (Invitrogen) with 100 ng of either the negative control (empty), DOHH 3′-UTR or ERBB-2 3′-UTR reporter construct (Genecopoeia™) and 1-2 nM final concentration of pre-miR-331-3p, pre-miR-642-5p, a combination of pre-miR-331-3p and pre-miR-642-5p, or pre-miR-NC per well. Lysates were assayed for Firefly and Renilla luciferase activities 24 h after transfection using the Dual Luciferase Reporter Assay System (Promega) and a Fluostar OPTIMA microplate reader (BMG Labtech), and firefly luciferase activities normalised to Renilla luciferase activities to obtain relative reporter gene activity.

DOHH protein [1] = test: Western blot of DOHH protein in transfected HeLa cells; conditions: 30 nM precursor miRNA, 3 days post transfection, tubulin loading control
Procedure: Having established that the DOHH 3′-UTR is a target for hsa-miR-331-3p and hsa-miR-642-5p in reporter gene assays, the effect of hsa-miR-331-3p and/or hsa-miR-642-5p over-expression on DOHH RNA and protein expression in HeLa cells was investigated. Briefly, HeLa cancer cells were seeded into 6 well plates or 10 cm^2 dishes and transfected using Lipofectamine 2000 (Invitrogen) and precursor miRNA molecules at a final concentration of 30 nM. Cells were harvested 24 hours post transfection for total RNA and 3 days post transfection for protein. The effect of hsa-miR-331-3p and hsa-miR-642-5p over-expression on DOHH RNA and protein production was analysed by RT-PCR and Western blot as described below.
Cytoplasmic protein extracts of the transfected HeLa cells were prepared as described previously (Giles et al. (2003) J Biol Chem 278(5), 2937-2946), resolved on NuPAGE 4-12% Bis Tris gels or NuPAGE 10% Bis Tris gels (Invitrogen) and transferred to PVDF membranes (Roche). Membranes were blocked in 5% skim milk/TBST and probed with anti-tubulin rat polyclonal antibody (1:1,000, Abcam ab6161 100) as a loading control and anti-DOHH (C 19) goat polyclonal antibody (1:1000, Santa Cruz Biotechnology sc-55157). […]

eIF5A = test: Immunoblot of cytoplasmic eIF5A in transfected HeLa cells; conditions: HeLa cells transiently over expressing miRNA, total anti-eIF5A antibody, data not shown
Source text: Endogenous DOHH mRNA was repressed by both hsa-miR-331-3p and hsa-miR-642-5p in HeLa cells (FIG. 3A).

[2] = system: 182 nucleotide element of the DOHH 3′-UTR; test: Reporter gene assay in LNCaP and C4-2B prostate cancer cells with 3′UTR, 3′UTR ELEMENT and 3′UTR MINUS ELEMENT constructs; conditions: for Down-regulation of reporter activity from “3′UTR MINUS ELEMENT” construct: LNCaP and C4-2B cells, 182 nucleotide element deleted; for Reporter activity from “3′UTR” and “3′UTR ELEMENT” constructs: both LNCaP and C4-2B cells, relative to miR-NC
Procedure: Briefly, three reporter gene constructs were prepared using a pmiR-REPORT vector (Ambion) as the backbone. The first construct was the construct described in Example 2, containing the DOHH 3′-UTR downstream of the firefly luciferase reporter gene (labelled “3′UTR”). The second construct contained a DOHH 3′-UTR in which the 182 base pair element had been deleted, downstream of the firefly luciferase reporter gene (labelled “3′UTR MINUS ELEMENT”). The third construct contained the 182 nucleotide element downstream of the firefly luciferase reporter gene (labelled “3′UTR ELEMENT”) (FIG. 6A).
The effect of hsa-miR-331-3p and/or hsa-miR-642-5p on expression from the “3′UTR”, “3′UTR ELEMENT” and “3′UTR MINUS ELEMENT” construct in LNCaP and C4-2B prostate cancer cells was then assessed using the same transfection and assay techniques.

DOHH mRNA = test: qRT-PCR of endogenous DOHH mRNA in transfected DU145 cells; conditions: 24 h after transfection, versus miR-NC
Procedure: (§1) The effect of hsa-miR-331-3p and/or hsa-miR-642-5p on endogenous DOHH expression in DU145 prostate cancer cells was assessed by co-transfecting the cells with pre-miR-331-3p, pre-miR-642-5p, or pre-miR-NC essentially as described in Examples 2 and 3, and DOHH mRNA levels were assessed by qRT-PCR of DOHH mRNA. Parallel Western blotting experiments were performed to assess DOHH protein levels, as also described above.

DOHH protein [3] = test: Western blot of DOHH protein in transfected DU145 cells; conditions: 48 h after transfection
Procedure: as §1

[4] = system: DOHH 3′-UTR 182 nucleotide element; test: Luciferase RNA level from 3′UTR ELEMENT construct in DU145 cells; conditions: co-transfection, data not shown
Source text: DU145 cells were also co-transfected with the “3′UTR ELEMENT” construct (i.e. the luciferase reporter carrying the DOHH 3′-UTR 182 nucleotide element) and hsa-miR-331-3p and/or hsa-miR-642-5p.

DU145 cells = test: CellTiter 96 Aqueous One cell proliferation assay in DU145 cells with or without mimosine; conditions: 5 days post transfection, compared with miR-NC, no mimosine
Source text: The functional significance of hsa-miR-331-3p and/or hsa-miR-642-5p overexpression in DU145 cells was then investigated. DU145 cells were transfected with pre-miR-331-3p, pre-miR-642-5p, or pre-miR-NC as described above. […] Using the Bliss model (Bliss (1939) Ann Appl. Biol 26:585-615), synergy occurs when the observed fractional inhibition for the combination of hsa-miR-331-3p and/or hsa-miR-642-5p and mimosine (defined as Eobserved) exceeds the sum of the combined miRNA effect and the mimosine effect (defined as EBliss) (Table 3).

Substance | DOHH 3′-UTR reporter activity (firefly normalised to Renilla luciferase) (DOHH 3′-UTR) | DOHH protein expression (immunoblot) (DOHH protein [1]) | Cytoplasmic levels of eIF5A (eIF5A) | Down-regulation of reporter activity from “3′UTR MINUS ELEMENT” construct [2] | Reporter activity from “3′UTR” and “3′UTR ELEMENT” constructs [2] | Endogenous DOHH mRNA expression (DOHH mRNA) | DOHH protein expression (Western blot) (DOHH protein [3]) | Luciferase RNA levels from “3′UTR ELEMENT” construct [4] | DU145 cell proliferation (DU145 cells)
hsa-miR-642-5p: human miR-642-5p, 5′-GUCCCUCUCCAAAUGUGUCUUG-3′ (SEQ ID NO:5); transfected as Ambion Pre-miR precursor PM11477 (listed as RNA, chemistry not given here; listed as Homo sapiens) | increased effect on the DOHH 3′UTR compared to the effect of hsa-miR-331-3p | observed to be targeted | unchanged cytoplasmic levels of eIF5A | not observed | significantly down-regulated reporter activity | significantly reduced expression of endogenous DOHH mRNA | inhibited expression of DOHH protein | Reduced luciferase RNA levels | significantly reduced DU145 cell proliferation
hsa-miR-331-3p: human miR-331-3p, 5′-GCCCCUGGGCCUAUCCUAGAA-3′ (SEQ ID NO:4); transfected as Ambion Pre-miR precursor PM10881 (listed as RNA, chemistry not given here; listed as Homo sapiens) | significant reduction in reporter activity | observed to be targeted | unchanged cytoplasmic levels of eIF5A | not observed | significantly down-regulated reporter activity | significantly reduced expression of endogenous DOHH mRNA | inhibited expression of DOHH protein | Reduced luciferase RNA levels | significantly reduced DU145 cell proliferation
